Results reported in patent US10815197B2, “N-sulfonyl benzamides as voltage-gated sodium channel inhibitors” (SHANGHAI HAIYAN PHARMACEUTICAL TECHNOLOGY CO., LTD., priority 2016, dated 2020).
Read-outs that look alike come from different tables or passages of the source.

What was measured:
[1] = Metabolism stability assay, human liver microsomes; type: in vitro ADME; conditions: for half-life at 1 µM: pH 7.4; for metabolic stability (in words): from Table 7
Description: Assay 4: Metabolism Stability Assay 1. […] Buffer A: 1 L solution of 100 mM potassium dihydrogen phosphate containing 1 mM EDTA (Sigma, V900157-100G) was prepared. Buffer B: 1 L solution of 100 mM dipotassium hydrogen phosphate containing 1 mM EDTA was prepared. Buffer C: 700 mL of buffer B was taken out and titrated with buffer A to pH 7.4. 2. […] 2.2 20 μl (20 mg/mL) of liver microsomes (Corning Lot. NO. 4133007) stock solution was added to 513.4 μl of buffer C on wet ice. 0.75 mg/mL liver microsomal solution was obtained. 2.3 1.5 μl of each of the above-mentioned compound to be tested and ketanserin solution was added to 498.5 μl of liver microsomal solution (0.7 5 mg/mL) respectively on wet ice. 1.5 μM mixed solution of compound to be tested and 1.5 μM mixed solution of ketanserin were obtained. 2.4 At the time points 0, 5, 15, 30, 45, and 60 min, 30 μl of the mixed solution of compound to be tested and 30 μl of the mixed solution of ketanserin were dispensed into the reaction plate on wet ice, respectively. 2.5 5 mg reduced coenzyme II (Roche, 10621706001) was weighed and dissolved in 1 mL of buffer C. 6 mM reduced coenzyme II solution was obtained. The reduced coenzyme II solution was dispensed into the reaction plate. 2.6 Imipramine was dissolved to give a 10 mM solution. 10 μl of imipramine solution was added to 100 mL of blank acetonitrile to generate the internal reference. 2.7 At 0 min, 135 μL of iced acetonitrile (Merck (Lot. 1778229518)) containing the internal reference was added to each well and then 15 μL of buffer C was added. 2.8 The reaction plate was placed into a 37° C. water bath incubator for 5 min. In the reaction plate, 15 μL of reduced coenzyme II solution was added to each well to initiate the reaction, and the timing was started. At the time points of 5, 15, 30, 45, and 60 min, 135 μL of iced acetonitrile containing the internal reference was added to each well to terminate the reaction. 2.9 The reaction plate was sealed with an aluminum film, placed on a vibration mixer and shaken at 500 rpm for 5 min. The plate was then centrifuged in a centrifuge at 3750 rp for 15 min. 2.10 The sample was diluted with pure water in accordance with the ratio of 1:1 and detected by LC/MS. Half-life: 0.693/K (the slope by plotting based on the incubation time and logarithm of the concentration value) Clearance ratio: (0.693/half-life)*(1/protein concentration (0.5 mg/mL))*(proportional factor) Wherein, the K value and the proportional factor were calculated by those skilled in the art according to the methods described in the prior art and contained in the instructions of the liver microsome product.

hNav1.7 = target: T1, hNav1.7 (Homo sapiens, UniProt Q15858); experiment: Manual patch clamp experiment hNav1.7 (CHO-hNav1.7 stable cell line); type: cell-based; conditions: for inhibition at 0.1 µM: read-out: Inhibition of Nav1.7 100 nM(%); for inhibition at 1 µM: read-out: Inhibition of Nav1.7 1000 nM(%)
T1 construct: host or cells: CHO
Excerpt: Assay 1: Manual Patch Clamp Experiment of Sodium Ion (hNav1.7, hNav1.5 and hNaV1.8) and Calcium Ion (hCav3.2) Channels
hNav1.7, hNav1.5 Manual Patch Clamp Experiment:
Patch voltage clamp electrophysiology allows for the direct measurement and quantification of current block of voltage-gated sodium channels (NaV's), and allows the determination of the time and voltage-dependence of block which has been interpreted as differential binding to the resting, open and inactivated states of the sodium channel to reflect the compound's inhibitory or activating effects (Hille, B., Journal of General Physiology (1977), 69: 497-515).
Representative compounds of the present invention were subject to a manual patch clamp experiment and the purpose of this study was to test the effect of compounds on this ion channel current on a stable cell line transfected with a specific ion channel using a manual patch clamp method. The used stable cell lines CHO-hNav1.7 and HEK-hNav1.5 were from Genionics and WuXi Apptec (Shanghai) respectively.
Manual patch clamp experimental program is as follows:
(1) Preparation of solutions and compounds: The whole cell patch clamp technique was used to record hNav1.7 and hNav1.5 currents. In the experiment, the composition of extracellular fluid (mM): HEPES: 5, NaCl: 40, KCl: CaCl2: 1, MgCl2: 1, CdCl2: 0.1, TEA-Cl: 20. The pH was adjusted to 7.3 with NaOH and the osmotic pressure was adjusted to 310-320 mOsm with sucrose, filtered and stored at 4° C. The composition of the intracellular fluid (mM): HEPES: 10, NaCl: 10, CsOH: 5, CsF: 140, EGTA: 1. The pH was adjusted to 7.3 with CsOH and the osmotic pressure was adjusted to 280-290 mOsm with sucrose, filtered and stored at −20° C.
The positive control and the test compound were firstly dissolved in 100% DMSO (Sigma-Aldrich, D2650), configured as stock solution at a concentration (100 nM, 1000 nM).) The above stock solution was serially diluted with DMSO prior to the experiment, the solution was further diluted with extracellular solution to obtain the test solution of the desired concentration.
(2) Manual Patch Clamp Experiment: The cell suspension was added to a 35 mm petri dish and placed on an inverted microscope stage. The cells were perfused with an extracellular fluid and the flow rate was 1-2 mL/min after cell adherence. The glass microelectrode was prepared in two steps by a microelectrode puller with an inlet water resistance of 2-5 MΩ. A/D-D/A digital-analog conversion was performed by Digidata 1440 (Molecular Devices) and pCLAMP software (version 10.2, Molecular Devices) for stimulation and signal acquisition; the signal was amplified by patch clamp amplifier (Multiclamp 700B, Molecular Devices), and filtering is 4 KHz.
Two different voltage stimulation procedures were used in the hNav1.7 and hNav1.5 manual patch clamp experiments.
One is the inactivation stimulation program, the clamp potential is set at V1/2 of the corresponding channel, i.e., about 50% of the channels are inactivated, then the voltage is applied to −120 mV for 50 ms, then depolarized to −10 mV for 20 ms leading to sodium current, and finally returned to the clamp potential. This stimulation program can also be called channel state-dependent voltage stimulation program.
The other is the non-inactivation stimulation program, the clamp potential is maintained at −120 mV, voltage stimulation is given to −10 mV for 20 ms leading to sodium current, and finally returned to the clamp potential. That is, all channels have not experienced inactivation status, but activate directly from the resting state under the conditions of the stimulation program.
The time intervals of these two voltage stimulation programs were 10 s. The inhibitory effect of the compound was calculated by the change of the current before and after dosing, the IC50 value was fitted by the Hill equation.

[2] = tested on: SNL-induced cold allodynia in rats; experiment: Cold allodynia in SNL (spinal nerve ligation) rats; type: in vivo, rat
Excerpt: Assay 3: Cold Allodynia in SNL
The experimental animals were male Sprague-Dawley rats, weighing 140-150 g at the beginning of the experiment. The animals were purchased from Slack company, and food and water were supplied ad lib after purchase. Rats were group-housed, four rats/cage, and individually identified by marking on the tail.
Test Compound and Grouping:
Vehicle: 5% dimethylacetamide(Sinopharm Technology), 5% solutol (Sigma) and 90% saline
Positive control: Pregabalin;
Test compound: compound Z-164;
The positive control and solvent composition of the test compound are 5% dimethylacetamide, 5% solutol and 90% saline.
30 mg/kg Compound Z-164:1.23 mL of dimethylacetamide was added to 148.11 mg of compound Z-164, stirred well until fully dissolved, and then 1.23 mL solutol was added and mixed well. Final volume was made up with 90% saline to 21.44 mL and mixed well before oral administration.
30 mg/kg Pregabalin: 1.08 mL of dimethylacetamide was added to 129.48 mg of Pregabalin, stirred well until fully dissolved, and then 1.08 mL solutol was added and mixed well. Final volume was made up with 90% saline to 21.58 mL and mixed well before oral administration.
1.1. Spinal Nerve Ligation (SNL) model • Surgical procedures are performed aseptically. • The surgical instruments (scissors, tweezers, scalpels, surgical cotton, sutures, retractor) are sterilized prior to surgery. • Animals were anesthetized with pentobarbital (50 mg/kg, i.p.). A toe pinch was used to ensure that the animals were fully anesthetized prior to surgery. Put ophthalmic ointment in the animal's eyes to prevent the corneas from drying out. • The fur on the surgical area of animal's lower body was shaved, and the skin of the surgical area was swabbed with 3 rounds of Betadine and 70% ethanol. The skin was allowed to dry before surgery. • A longitudinal incision will be made by scalpel at the lower lumbar and sacral levels, exposing the paraspinal muscles on the left side. The retractor was used to separate the muscles and tissues to expose the vertebra. • The left L5 and L6 spinal nerves will be isolated and tightly ligated with 6-0 silk thread. • The wound was closed with sutures. • The surgical instruments were cleaned, and sterilized by using a glass bead sterilizer. • Animals were placed on the electric blanket after surgery. Inject 5 ml sterile saline to prevent dehydration. The animals were returned to their home cage after fully awake (walking around).
1.2. Baseline Test of Cold Allodynic and Grouping
The baseline of cold allodynic was measured in rats two days before dosing. Use a pipette to apply 100 μl of acetone to the animal's lateral hind paw skin and the time of slapping, flinching, lifting, licking of the affected paw were recorded for one minute. Acetone was applied twice in total and the two applications were 10 minutes apart. The sum of the two times was recorded as cold allodynic time in rats. The rats were grouped randomized according to the results of baseline test of cold allodynic the day before dosing.
1.3. Cold Allodynic Testing
A pipette was used to apply 100 μl of acetone to the animal's lateral hind paw skin two hours after dosing and the time of slapping, flinching, lifting, licking of the affected paw were recorded for one minute. Acetone was applied twice and the two applications were 10 minutes apart. The sum of the two times was recorded as cold allodynic time in rats.
Oral administration was performed two hours before cold allodynic testing.
1.5. Data Collection and Analysis
Data were collected with Excel and analyzed with Prism.

[3] = 30 mg/kg p.o., two hours after dosing

T1 sequence (Q15858 whole entry): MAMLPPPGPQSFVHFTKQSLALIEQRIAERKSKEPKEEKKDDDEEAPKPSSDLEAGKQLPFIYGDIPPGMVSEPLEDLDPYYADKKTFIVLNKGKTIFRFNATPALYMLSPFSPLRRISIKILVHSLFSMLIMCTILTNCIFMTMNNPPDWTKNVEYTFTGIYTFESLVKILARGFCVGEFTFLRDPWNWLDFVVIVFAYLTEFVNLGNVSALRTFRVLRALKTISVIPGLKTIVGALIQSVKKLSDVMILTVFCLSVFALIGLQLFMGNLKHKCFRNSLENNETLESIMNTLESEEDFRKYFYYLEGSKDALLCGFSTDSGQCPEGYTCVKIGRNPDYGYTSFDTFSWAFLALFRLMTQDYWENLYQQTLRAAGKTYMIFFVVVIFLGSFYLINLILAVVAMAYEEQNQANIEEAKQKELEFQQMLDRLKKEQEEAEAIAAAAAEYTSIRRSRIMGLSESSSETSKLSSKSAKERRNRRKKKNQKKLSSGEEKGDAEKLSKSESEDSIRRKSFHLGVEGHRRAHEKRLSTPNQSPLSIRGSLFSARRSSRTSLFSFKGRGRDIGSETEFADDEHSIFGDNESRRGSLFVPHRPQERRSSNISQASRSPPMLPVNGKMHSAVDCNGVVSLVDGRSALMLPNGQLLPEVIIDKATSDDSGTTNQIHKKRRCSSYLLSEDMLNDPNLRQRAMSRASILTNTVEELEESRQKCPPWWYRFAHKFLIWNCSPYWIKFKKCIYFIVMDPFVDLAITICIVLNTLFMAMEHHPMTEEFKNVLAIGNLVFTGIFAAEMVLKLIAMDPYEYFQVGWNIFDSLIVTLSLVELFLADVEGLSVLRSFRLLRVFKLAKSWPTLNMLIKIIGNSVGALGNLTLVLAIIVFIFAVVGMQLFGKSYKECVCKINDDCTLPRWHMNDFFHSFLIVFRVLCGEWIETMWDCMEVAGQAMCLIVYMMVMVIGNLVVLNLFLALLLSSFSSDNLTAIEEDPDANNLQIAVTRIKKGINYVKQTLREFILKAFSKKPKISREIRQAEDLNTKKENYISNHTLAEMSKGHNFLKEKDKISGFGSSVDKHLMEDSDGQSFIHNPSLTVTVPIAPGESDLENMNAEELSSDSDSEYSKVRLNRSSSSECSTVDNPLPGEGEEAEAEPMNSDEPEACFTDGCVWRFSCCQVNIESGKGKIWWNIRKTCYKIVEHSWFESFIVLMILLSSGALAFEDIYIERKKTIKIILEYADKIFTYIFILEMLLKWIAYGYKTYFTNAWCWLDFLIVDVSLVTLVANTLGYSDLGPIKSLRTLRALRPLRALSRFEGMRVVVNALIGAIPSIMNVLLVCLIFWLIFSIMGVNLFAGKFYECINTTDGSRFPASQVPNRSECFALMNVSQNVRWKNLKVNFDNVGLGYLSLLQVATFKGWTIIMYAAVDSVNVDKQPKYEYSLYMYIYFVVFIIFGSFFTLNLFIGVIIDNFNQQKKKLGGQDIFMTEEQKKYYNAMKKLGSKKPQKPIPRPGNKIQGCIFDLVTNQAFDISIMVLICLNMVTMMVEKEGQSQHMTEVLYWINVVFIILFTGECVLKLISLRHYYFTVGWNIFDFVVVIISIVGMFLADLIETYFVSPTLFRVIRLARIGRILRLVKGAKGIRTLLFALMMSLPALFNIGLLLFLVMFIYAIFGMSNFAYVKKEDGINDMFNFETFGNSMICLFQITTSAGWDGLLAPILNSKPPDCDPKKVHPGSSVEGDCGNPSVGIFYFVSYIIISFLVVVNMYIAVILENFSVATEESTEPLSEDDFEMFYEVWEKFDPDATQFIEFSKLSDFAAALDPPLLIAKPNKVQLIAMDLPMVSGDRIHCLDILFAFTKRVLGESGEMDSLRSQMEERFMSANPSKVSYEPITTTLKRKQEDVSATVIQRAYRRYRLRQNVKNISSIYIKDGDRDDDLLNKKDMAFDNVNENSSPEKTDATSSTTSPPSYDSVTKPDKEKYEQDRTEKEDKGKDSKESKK

## O=C(NS(=O)(=O)C1CC1)c1cc(Cl)c(CN2CCN(c3ccc(Cl)c(Cl)c3)CC2)cc1F [Compound Z-89, 5-chloro-N-(cyclopropylsulfonyl)-4-((4-(3,4-dichlorophenyl)piperazin-1-yl)methyl)-2-fluorobenzamide]
[1]
  Clearance: 6.49 mL/min/kg
  half-life at 1 µM: 4.46 h
hNav1.7
  inhibition at 0.1 µM: 94.8%
  inhibition at 1 µM: 99.7%

## O=C(NS(=O)(=O)C1CC1)c1cc(Cl)c(CN2CCN(c3ccc(OC(F)(F)F)cn3)CC2)cc1F [Compound Z-159]
[1]
  Clearance: 3.69 mL/min/kg
  half-life at 1 µM: 7.84 h
hNav1.7; compound at 100 nM
  inhibition at 0.1 µM: 90.6%
hNav1.7; compound at 1000 nM
  inhibition at 1 µM: 97.3%

## Cc1cc(N2CCN(Cc3cc(F)c(C(=O)NS(C)(=O)=O)cc3Cl)CC2)ccc1Cl [Compound C13, reference compound]
[1]
  Clearance: 138.91 mL/min/kg
  metabolic stability (in words): significantly reduced
  half-life at 1 µM: 0.208 h

## O=C(NS(=O)(=O)C1CC1)c1cc(Cl)c(OC[C@H]2CCCN2c2ccc(C(F)(F)F)nc2)cc1F [Compound Z-119, (R)-5-chloro-N-(cyclopropylsulfonyl)-2-fluoro-4-((1-(6-(trifluoromethyl)pyridin-3-yl)pyrrolidin-2-yl)methoxy) benzamide]
[1]
  Clearance: 22.57 mL/min/kg
  half-life at 1 µM: 1.28 h

## Cc1cc(C(=O)NS(=O)(=O)C2CC2)c(F)cc1OC[C@H]1CCCN1c1ccc(C(F)(F)F)cn1 [Compound Z-195]
[1]
  Clearance: 20.86 mL/min/kg
  half-life at 1 µM: 1.39 h
hNav1.7; compound at 100 nM
  inhibition at 0.1 µM: 76.7%
hNav1.7; compound at 1000 nM
  inhibition at 1 µM: 92.7%

## CS(=O)(=O)NC(=O)c1cc(Cl)c(CN2CCN(c3ccc(C4CC4)c(Cl)c3)CC2)cc1F [Compound C12, reference compound]
[1]
  Clearance: 78.28 mL/min/kg
  metabolic stability (in words): significantly reduced
  half-life at 1 µM: 0.37 h

## O=C(NS(=O)(=O)C1CC1)c1cc(Cl)c(CN2CCN(c3ccc(OC(F)(F)F)c(Cl)c3)CC2)cc1F [Compound Z-92]
[1]
  Clearance: 0.07 mL/min/kg
  half-life at 1 µM: 420 h
hNav1.7; compound at 100 nM
  inhibition at 0.1 µM: 94.5%
hNav1.7; compound at 1000 nM
  inhibition at 1 µM: 97.3%

## O=C(NS(=O)(=O)C1CC1)c1cc(Cl)c(OC2CCN(c3ccc(Cl)c(Cl)c3)CC2)cc1F [Compound Z-117, 5-chloro-N-(cyclopropylsulfonyl)-4-((1-(3,4-dichlorophenyl)piperidin-4-yl)oxy)-2-fluorobenzamide]
[1]
  Clearance: 5.41 mL/min/kg
  half-life at 1 µM: 5.36 h
hNav1.7; compound at 100 nM
  inhibition at 0.1 µM: 89.3%
hNav1.7; compound at 1000 nM
  inhibition at 1 µM: 96.1%

## O=C(NS(=O)(=O)C1CC1)c1cc(Cl)c(OC[C@H]2CCCN2c2ccc(C(F)(F)F)cc2)cc1F [Compound Z-80, (R)-5-chloro-N-(cyclopropylsulfonyl)-2-fluoro-4-((1-(4-(trifluoromethyl)phenyl)pyrrolidine-2-yl)methoxy)benzamide]
[1]
  Clearance: 36.37 mL/min/kg
  half-life at 1 µM: 0.796 h
hNav1.7; compound at 100 nM
  inhibition at 0.1 µM: 90.5%
hNav1.7; compound at 1000 nM
  inhibition at 1 µM: 96.8%

## CC(C)C[C@H](CN)CC(=O)O [Positive control, Pregabalin, reference compound]
[2]; [3]
  Anti-allodynia Effect (mean, %): 74.9%
  Response duration (mean, s) the next day (Baseline): 13.005 s
[2]; 30 mg/kg, 2 hr post oral administration
  inhibition of SNL-induced cold allodynia (in words): inhibition of SNL-induced cold allodynia
[2]; acetone cold allodynia, baseline before dosing
  Response duration (mean, s) the first day (Baseline): 36.847 s
